Patent US10889569B2, “Condensed ring group azacyclobutyl triazole derivative, preparation method therefor and use thereof in medicine” (Jiangsu Hengrui Medicine Co., Ltd., priority 2016, dated 2021)

What was measured:
[1] = target: human V2R (Homo sapiens (Human), UniProt P30518); assay: Inhibition activity on human V2R (cAMP HTRF assay, HEK293/human V2R pool cells); type: cell-based; conditions: vasopressin
Method: The inhibition effect of the compounds of the present invention on the activity of human V2R protein expressed in HEK293/human V2R cells was determined by the following experimental method:
The pcDNA3.1-V2R plasmid was transferred into HEK293 cells with the Lipofectamine® 3000 transfection reagent; G418 was added on the next day, and the HEK293/human V2R pool cell lines were obtained.
HEK293/human V2R pool cells were dissociated with the cell dissociation solution (enzyme-free), thereby dissociating the cells from the cell culture dish into individual cells. Then the cell solution was blown well, and centrifuged to remove the supernatant. The cells were resuspended in the test buffer 1 (1×HBSS+20 mM HEPES+0.1% BSA) and counted. The cell density was adjusted to 1250 cells/5 μl, i.e., 2.5*10^5/ml.
The compounds were formulated into a series of concentrations of 20 mM, 6.67 mM, 2.22 mM, 0.74 mM, 0.25 mM, 0.08 mM, 27.4 μM, 9.14 μM, 3.05 μM, 1.02 μM, 0.34 μM and 0 μM (DMSO) with pure DMSO. The compounds were then diluted into a 4-fold working concentration solution with the test buffer 2 (test buffer 1+1 mM IBMX).
Agonist: 460 μM vasopressin was used as the mother liquor, which was formulated at 2 μM with DMSO, and then diluted to 0.5 nM with the test buffer 2.
Standards: The first point was 20 μl of a stock solution (2848 nM), which was diluted successively to a total of eleven concentrations in a 4-fold concentration gradient with the test buffer 1 from the second point.
1. The well-mixed cells were added to a 384-well plate (5 μl/well) without changing the tip.
2. The test compounds and positive compound formulated were added (2.5 μl/well), and the tips were changed.
3. The plate was centrifuged at 1000 rpm for 1 min, shaken for 30 sec to mix well, and incubated at room temperature for 30 min.
4. The standard curve wells were added with the test buffer 2 (5 μl/well).
5. The formulated agonist was added (2.5 μl/well), and the tips were changed; the plate was centrifuged at 1000 rpm for 1 min, shaken for 30 sec to mix well, and incubated at room temperature for 30 min.
6. cAMP-d2 (a component in the cAMP dynamic 2 kit) and Anti-cAMP-Eu-Cryptate (a component in the cAMP dynamic 2 kit) were formulated in the dark, which were then mixed well with cAMP lysate (a component in the cAMP dynamic 2 kit) in a ratio of 1:4. Each well was added with the formulated cAMP-d2 solution (5 μl/well), followed by addition of Anti-cAMP-Eu-Cryptate (5 μl/well). The plate was shaken for 30 sec to mix well, and incubated in the dark at room temperature for 1 h.
The HTRF Signals were Read by the PheraStar Multi-Function Microplate Reader.
The data in this test was processed using the data processing software Graphpad Prism.
The inhibition activity of the compounds of the present invention on human V2R was determined by the above test, and the IC50 values obtained are shown in Table 4.

[2] = target: OTR (Rattus norvegicus (Rat), UniProt P70536); assay: Oxytocin-induced rat uterine contraction model; type: in vivo; conditions: female SD rats, 1 μg/kg OT i.v.
Method: The efficacy of OTR inhibitors (compound 2-10mpk, compound 2-30mpk and compound 2-100mpk) on oxytocin (OT)-induced rat uterine contraction model was evaluated by establishing a rat uterine contraction model.
Compound 2-100mpk: 221.0 mg of compound 2 was weighed, added with 5.40 ml of Cremophor RH40, 2.16 ml of Masine 35-1, 3.24 ml of polyethylene glycol 400 (PEG400) and 1.20 ml of ethanol respectively, and mixed well by ultrasonic vibration;
Compound 2-30mpk: 54.2 mg of compound 2 was weighed, added with 4.50 ml of Cremophor RH40, 1.80 ml of Masine 35-1, 2.70 ml of polyethylene glycol 400 (PEG400) and 1.00 ml of ethanol respectively, and mixed well by ultrasonic vibration;
Compound 2-10mpk: 1 ml of compound 2-100mpk solution was added with 9 ml of solvent (45% of Cremophor RH40, 18% of Masine 35-1, 27% of PEG400 and 10% of ethanol), and mixed well. […]
After completion of the experiment, the area under curve (AUC) of the uterine contraction pressure 5 minutes before and after the administration of the inducing agent was calculated respectively. The efficacy of the test compound was evaluated by calculating the ratio of the difference value in AUC before and after induction to the AUC before induction, and comparing with the difference value of the ratio after administration of the test compound. ΔAUC ratio=(AUC0−AUCT)/AUC0; […]

human V2R, sequence (P30518 whole entry): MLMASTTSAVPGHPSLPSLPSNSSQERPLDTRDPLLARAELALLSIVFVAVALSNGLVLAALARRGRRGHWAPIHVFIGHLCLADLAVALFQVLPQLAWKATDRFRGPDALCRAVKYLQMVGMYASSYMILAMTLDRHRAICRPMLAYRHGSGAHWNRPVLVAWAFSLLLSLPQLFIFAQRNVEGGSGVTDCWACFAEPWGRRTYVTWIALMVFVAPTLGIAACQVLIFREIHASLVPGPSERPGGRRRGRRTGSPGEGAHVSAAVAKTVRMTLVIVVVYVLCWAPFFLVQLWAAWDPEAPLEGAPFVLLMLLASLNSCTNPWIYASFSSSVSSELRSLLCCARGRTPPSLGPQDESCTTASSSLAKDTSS
OTR, sequence (P70536 whole entry): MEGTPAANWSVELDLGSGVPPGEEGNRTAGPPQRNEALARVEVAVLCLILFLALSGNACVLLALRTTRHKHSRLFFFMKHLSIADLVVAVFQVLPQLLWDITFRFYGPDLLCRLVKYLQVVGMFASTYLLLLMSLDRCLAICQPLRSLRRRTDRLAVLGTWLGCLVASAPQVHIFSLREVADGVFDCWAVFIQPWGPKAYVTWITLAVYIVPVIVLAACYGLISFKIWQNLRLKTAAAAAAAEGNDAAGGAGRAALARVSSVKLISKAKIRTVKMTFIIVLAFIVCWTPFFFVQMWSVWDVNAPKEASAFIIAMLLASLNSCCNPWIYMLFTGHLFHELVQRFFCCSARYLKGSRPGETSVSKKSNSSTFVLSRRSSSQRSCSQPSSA

Compound | IC50 [1] [µM] | Efficacy on OT-induced uterine contraction vs solvent control group ([2]; 30mpk p.o.) | Efficacy on OT-induced uterine contraction vs solvent control group ([2]; 100mpk p.o.)
COCc1nnc(N2CC(c3cccc4cc(F)ccc34)C2)n1-c1ccc(OC)nc1 [Example 2, 5-(3-(3-(6-Fluoronaphthalen-1-yl)azetidin-1-yl)-5-(methoxymethyl)-4H-1,2,4-triazol-4-yl)-2-methoxypyridine] | 4.9 | can effectively block the downstream function (uterine contraction) of oxytocin receptors mediated by oxytocin | can effectively block the downstream function (uterine contraction) of oxytocin receptors mediated by oxytocin
COCc1nnc(N2CC(n3cc(C)c4cc(F)ccc43)C2)n1-c1ccc(OC)nc1 [Example 17, 5-Fluoro-1-(1-(5-(methoxymethyl)-4-(6-methoxypyridin-3-yl)-4H-1,2,4-triazol-3-yl)azetidin-3-yl)-3-methyl-1H-indole] | 10.9 |  | 
